{"source": "patent US20220218838A1", "about": "“ADC FOR A TREATMENT CONCOMITANT WITH OR SUBSEQUENT TO DOCETAXEL” (PIERRE FABRE MEDICAMENT, priority 2019, published 2022)", "key": {"MCF-7 tumour": {"system": "MCF-7 tumour", "test": "In-vivo activity in a breast cancer model: nude mice grafted with MCF-7 cells, after onset of docetaxel resistance", "conditions": "docetaxel 9 mg/kg intravenously, 5 injections, mice bearing MCF-7 tumours", "protocol": "Determination of in-vivo activity: In-vivo activity is tested in a breast cancer model: 7-week old nude female mice (Charles River Laboratories, n=15) were subcutaneously grafted with 5×10^6 MCF-7 cells 1 day after subcutaneous implantation of 0.72 mg of granules releasing 17β-estradiol (Innovative Research of America) for 60 days.\nThe mice are randomised, and treatment is initiated when the tumours reach a size of approximately 150 mm^3. The tumour volume (length×width×height×0.52) is measured at least twice a week and the therapeutic response is defined using solid tumour response criteria (RECIST).\nMice bearing MCF-7 tumours are injected intravenously with docetaxel, 9 mg/kg twice a week for a total of 5 injections.\nThe percentage of the regression values is calculated using the following formula:\nwhere T=the tumour volume in the treated group, ΔT=the tumour volume in the treated group on the day of the study minus the tumour volume in the treated group on the initial day of administration, and Tinitial=the tumour volume in the treated group on the initial day of the administration The disease is considered to be progressing when the tumour size increases by >20%. Partial regression (PR) is defined as a reduction in tumour size >30%. […]"}, "IGF-IR": {"target": "IGF-IR (Homo sapiens, UniProt P08069)", "sequence (P08069 31-736 limits assumed)": "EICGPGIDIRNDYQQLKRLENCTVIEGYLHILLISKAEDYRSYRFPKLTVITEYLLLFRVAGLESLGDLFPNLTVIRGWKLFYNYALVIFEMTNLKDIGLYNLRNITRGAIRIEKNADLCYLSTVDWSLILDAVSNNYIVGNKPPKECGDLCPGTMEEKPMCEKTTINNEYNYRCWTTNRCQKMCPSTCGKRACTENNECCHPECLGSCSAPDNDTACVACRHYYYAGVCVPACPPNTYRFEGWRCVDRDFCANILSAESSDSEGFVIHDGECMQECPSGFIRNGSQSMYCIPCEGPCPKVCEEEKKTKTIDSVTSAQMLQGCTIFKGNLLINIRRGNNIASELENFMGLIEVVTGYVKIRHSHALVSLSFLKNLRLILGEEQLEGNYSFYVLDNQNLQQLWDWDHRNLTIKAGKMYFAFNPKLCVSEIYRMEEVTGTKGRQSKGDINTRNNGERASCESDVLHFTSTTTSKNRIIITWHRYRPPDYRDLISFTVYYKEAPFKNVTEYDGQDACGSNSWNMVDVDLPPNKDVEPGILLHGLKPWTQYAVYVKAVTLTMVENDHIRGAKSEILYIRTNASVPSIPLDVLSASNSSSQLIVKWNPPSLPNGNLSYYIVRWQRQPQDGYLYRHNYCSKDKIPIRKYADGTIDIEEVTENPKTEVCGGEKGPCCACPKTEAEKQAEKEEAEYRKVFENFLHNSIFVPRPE", "sequence (P08069 741-1367 partner limits assumed)": "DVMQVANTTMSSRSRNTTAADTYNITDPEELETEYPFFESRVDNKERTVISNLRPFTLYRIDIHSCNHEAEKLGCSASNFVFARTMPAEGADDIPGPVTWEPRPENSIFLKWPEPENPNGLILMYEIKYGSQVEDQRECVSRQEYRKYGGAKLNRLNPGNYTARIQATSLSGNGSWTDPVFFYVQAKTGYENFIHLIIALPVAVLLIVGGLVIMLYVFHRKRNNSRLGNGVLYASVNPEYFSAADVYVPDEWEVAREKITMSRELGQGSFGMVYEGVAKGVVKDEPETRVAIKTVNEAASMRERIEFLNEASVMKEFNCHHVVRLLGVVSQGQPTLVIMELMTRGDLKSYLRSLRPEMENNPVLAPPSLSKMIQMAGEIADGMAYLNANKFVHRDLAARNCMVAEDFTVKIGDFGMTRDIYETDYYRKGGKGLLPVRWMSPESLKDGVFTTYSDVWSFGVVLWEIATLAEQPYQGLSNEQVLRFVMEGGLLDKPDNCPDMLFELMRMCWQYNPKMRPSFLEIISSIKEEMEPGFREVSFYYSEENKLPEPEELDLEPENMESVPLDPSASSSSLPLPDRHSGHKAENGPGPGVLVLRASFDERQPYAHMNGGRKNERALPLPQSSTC", "conditions": "read-out: Kd of binding to IGF-IR; cited from earlier work"}}}
{"compound": "CC(=O)O[C@@]12CO[C@@H]1C[C@H](O)[C@@]1(C)C(=O)[C@H](O)C3=C(C)[C@@H](OC(=O)[C@H](O)[C@@H](NC(=O)OC(C)(C)C)c4ccccc4)C[C@@](O)([C@@H](OC(=O)c4ccccc4)[C@H]21)C3(C)C", "note": "[docetaxel]", "values": [{"measurement": "time after which the tumours became resistant to docetaxel and relapsed", "setting": "MCF-7 tumour", "value": 70, "unit": "days"}]}
{"compound": "IGF2: natural ligand bound by IGF-IR", "values": [{"measurement": "Kd", "setting": "IGF-IR", "value": "~1", "unit": "nM"}]}
